Results: paper PMC5587309, “Involvement of arginine 878 together with Ca^2+ in mouse aminopeptidase A substrate specificity for N-terminal acidic amino-acid residues” (PLoS ONE, 2017)
Positions count from the first letter of the chain named. Where two headings read alike, the source gives them in different places.

Assays:
Format in all cases: biochemical
[1] = target: T1, R878A mutated mAPA (Mus musculus, UniProt P16406, R878A); test: Inhibition of GluNA hydrolysis by purified recombinant R878A His-mAPA; conditions: R878A mAPA; for Ki: 0.5 mM GluNA, read-out: Ki
T1 construct: made in house; host or cells: stably transfected CHO-K1 cells
T1 sequence (P16406 1-945 R878A): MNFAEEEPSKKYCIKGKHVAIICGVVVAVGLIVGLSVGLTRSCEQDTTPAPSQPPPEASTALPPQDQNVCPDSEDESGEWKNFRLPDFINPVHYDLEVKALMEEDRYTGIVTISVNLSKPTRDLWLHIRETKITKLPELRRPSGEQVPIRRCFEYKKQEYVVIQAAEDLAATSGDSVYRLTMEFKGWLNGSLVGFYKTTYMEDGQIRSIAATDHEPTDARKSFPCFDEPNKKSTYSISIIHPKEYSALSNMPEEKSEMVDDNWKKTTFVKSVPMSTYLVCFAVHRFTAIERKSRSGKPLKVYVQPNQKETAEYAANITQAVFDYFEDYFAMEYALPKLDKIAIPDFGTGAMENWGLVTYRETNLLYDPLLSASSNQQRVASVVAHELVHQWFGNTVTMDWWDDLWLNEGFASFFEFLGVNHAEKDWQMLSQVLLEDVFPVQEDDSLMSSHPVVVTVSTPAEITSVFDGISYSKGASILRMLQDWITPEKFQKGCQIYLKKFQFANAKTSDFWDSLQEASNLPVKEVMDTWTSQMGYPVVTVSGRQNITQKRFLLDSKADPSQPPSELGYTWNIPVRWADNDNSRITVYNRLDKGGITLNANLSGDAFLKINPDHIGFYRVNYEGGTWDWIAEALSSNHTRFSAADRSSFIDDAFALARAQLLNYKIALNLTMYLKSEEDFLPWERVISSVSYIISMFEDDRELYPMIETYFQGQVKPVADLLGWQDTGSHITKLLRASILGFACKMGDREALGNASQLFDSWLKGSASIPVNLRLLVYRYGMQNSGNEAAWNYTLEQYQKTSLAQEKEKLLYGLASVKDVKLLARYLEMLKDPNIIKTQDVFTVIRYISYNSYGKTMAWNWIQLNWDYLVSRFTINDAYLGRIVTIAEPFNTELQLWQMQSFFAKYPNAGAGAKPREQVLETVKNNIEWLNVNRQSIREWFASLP
Procedure: (§1) Enzyme assays were carried out for wild-type and mutated His-mAPAs in 50 mM Tris-HCl buffer, pH 7.4, with or without 4 mM CaCl2, by monitoring the rate of hydrolysis of GluNA, as previously described. The sensitivity to Ca^2+ of purified wild-type and mutated His-mAPA was determinated by incubating 0.5 mM GluNA with 0 to 4 mM CaCl2 in a final volume of 100 μl of 50 mM Tris-HCl buffer, pH 7.4. All the assays were performed in black 96-well plates (solid black 96-well flat-bottomed non-treated plates with no lid; Corning Costar). All of the enzymatic studies were performed such that substrate hydrolysis rates were maintained below 10% (initial rate conditions). The kinetic curves were monitored by following the increase in fluorescence at 460 nm (lex = 330 nm), induced by the release of the β-naphthylamide fluorogenic part of the substrate by APA. Fluorescence signals were monitored by counting photons with a spectrophotometer (Fusion universal microplate analyser; Packard) equipped with a temperature control device and a plate shaker. The kinetic parameters (Km and kcat) were determined from Michaelis-Menten plots, using GraphPad Prism 4 software (GraphPad) with a final concentration of substrate (GluNA) from 0.005 to 5 mM with or without 4 mM Ca^2+. For evaluation of the substrate specificity of APA with or without 4 mM Ca^2+, the rate of hydrolysis of […] additional substrates, α-L-aspartate-β-naphthylamide (AspNA), α-L-alanine-β-naphthylamide (AlaNA) and basic α-L-lysine-β-naphthylamide (LysNA), was determined under the same experimental conditions as described for GluNA. The sensitivity of wild-type and mutated His-mAPAs to inhibition by [(3S)-3-amino-4-sulfanyl-butane-1-sulfonic acid] (EC33), glutamate-thiol (GluSH), glutamate-phosphonic-acid (GluPO3H2), methionine-thiol (MetSH) and lysine-thiol (LysSH) was determined by establishing dose-dependent inhibition curves for a final GluNA concentration of 0.5 mM in the presence or absence of 4 mM CaCl2. These compounds being linear competitive inhibitors, their Ki were calculated from the formula Ki = IC50/ (1+ [GluNA]/Km).

[2] = target: T2, R878K mutated mAPA (Mus musculus, UniProt P16406, R878K); test: Inhibition of GluNA hydrolysis by purified recombinant R878K His-mAPA; conditions: R878K mAPA; for Ki: 0.5 mM GluNA, read-out: Ki
T2 construct: made in house; host or cells: stably transfected CHO-K1 cells
T2 sequence (P16406 1-945 R878K): T1 sequence (P16406 1-945 R878A) with A878K
Procedure: as §1

[3] = target: T2, R878K mutated mAPA; test: Kinetic parameters of substrate hydrolysis by R878K His-mAPA
Procedure: as §1

Row | Structure (SMILES) | Ki ([1]; 4 mM Ca2+) | Ki ([1]; absence of calcium) | Ki ([2]; 4 mM Ca2+) | Ki ([2]; absence of calcium) | Km ([3]; 4 mM Ca2+) | kcat ([3]; 4 mM Ca2+) | Km ([3]; no Ca2+) | kcat ([3]; no Ca2+) | decrease in the affinity of the enzyme for the substrate compared to wild-type (factor) ([3]; presence of Ca2+) | enhancement of inhibitory potency by 4 mM Ca2+ compared to Ki in the absence of Ca2+ [1] | enhancement of inhibitory potency by 4 mM Ca2+ compared to Ki in the absence of Ca2+ [2]
1 | CSCC[C@H](N)CS [MetSH] | 3220 ± 200 nM | 475 ± 140 nM | 5140 ± 560 nM | 1250 ± 57 nM | – | – | – | – | – | – | –
2 | N[C@@H](CCC(=O)O)C(=O)Nc1ccc2ccccc2c1 [HGluβNA, α-L-glutamyl-β-naphthylamide] | – | – | – | – | 269 ± 5.1 µM | 135 ± 1.3 s⁻¹ | 12500 ± 1450 µM | 3.12 ± 0.4 s⁻¹ | 6 | – | –
3 | N[C@@H](CC(=O)O)C(=O)Nc1ccc2ccccc2c1 [HAspβNA, α-L-aspartate-β-naphthylamide] | – | – | – | – | 202 ± 5.7 µM | 42.2 ± 1.1 s⁻¹ | 3150 ± 328 µM | 0.2 ± 0.01 s⁻¹ | – | – | –
4 | N[C@H](CS)CCC(=O)O [GluSH, (4S)-4-amino-5-sulfanylpentanoic acid] | 983 ± 160 nM | 1720 ± 190 nM | 2100 ± 440 nM | > 10000 nM | – | – | – | – | – | 1.7 fold | 6.6 fold
5 | NCCCC[C@H](N)CS [LysSH, (2S)-2,6-diaminohexane-1-thiol] | 7510 ± 660 nM | 118 ± 13 nM | 13900 ± 390 nM | 378 ± 20 nM | – | – | – | – | – | – | –
6 | N[C@H](CS)CCS(=O)(=O)O [EC33, (3S)‐3‐amino‐4‐sulfanylbutane‐1‐sulfonic acid] | 2000 ± 200 nM | – | 1520 ± 126 nM | – | – | – | – | – | – | – | –
7 | NCCCC[C@H](N)C(=O)Nc1ccc2ccccc2c1 [HLysβNA, α-L-lysine-β-naphthylamide] | – | – | – | – | 229 ± 16.2 µM | 24.4 ± 0.5^n.s s-1 | 336 ± 54.3 µM | 9.0 ± 0.5 s⁻¹ | – | – | –
8 | C[C@H](N)C(=O)Nc1ccc2ccccc2c1 [HAlaβNA, α-L-alanine-β-naphthylamide] | – | – | – | – | 821 ± 142 µM | 26.2 ± 1.5 s⁻¹ | 670 ± 25.2 µM | 27.1 ± 4.8 s⁻¹ | – | – | –
